Assay results published in ChEMBL document CHEMBL5131376, “Kinase Inhibitors as Underexplored Antiviral Agents” (J Med Chem, 2022).

How the values were obtained:
[1] = Inhibition of PDGFR (unknown origin); parameters: species or system Homo sapiens
[2] = molecular target: AP2-associated protein kinase 1 (Homo sapiens, UniProt Q2M2I8); test: Binding affinity to AAK1 (unknown origin) assessed as dissociation constant
[3] = tested on: Middle East respiratory syndrome-related coronavirus; test: Antiviral activity against MERS-CoV infected in human HUh-7 cells at 0.1 to 10 uM; format: functional; settings: dose 0.1-10 µM
[4] = Binding affinity to AMPK (unknown origin); parameters: species or system Homo sapiens
[5] = tested on: Middle East respiratory syndrome-related coronavirus; test: microbe, parasite or virus in culture; settings: Vero
[6] = molecular target: Tyrosine-protein kinase ABL1 (Homo sapiens, UniProt P00519)
Sequence of Tyrosine-protein kinase ABL1 (P00519 whole entry): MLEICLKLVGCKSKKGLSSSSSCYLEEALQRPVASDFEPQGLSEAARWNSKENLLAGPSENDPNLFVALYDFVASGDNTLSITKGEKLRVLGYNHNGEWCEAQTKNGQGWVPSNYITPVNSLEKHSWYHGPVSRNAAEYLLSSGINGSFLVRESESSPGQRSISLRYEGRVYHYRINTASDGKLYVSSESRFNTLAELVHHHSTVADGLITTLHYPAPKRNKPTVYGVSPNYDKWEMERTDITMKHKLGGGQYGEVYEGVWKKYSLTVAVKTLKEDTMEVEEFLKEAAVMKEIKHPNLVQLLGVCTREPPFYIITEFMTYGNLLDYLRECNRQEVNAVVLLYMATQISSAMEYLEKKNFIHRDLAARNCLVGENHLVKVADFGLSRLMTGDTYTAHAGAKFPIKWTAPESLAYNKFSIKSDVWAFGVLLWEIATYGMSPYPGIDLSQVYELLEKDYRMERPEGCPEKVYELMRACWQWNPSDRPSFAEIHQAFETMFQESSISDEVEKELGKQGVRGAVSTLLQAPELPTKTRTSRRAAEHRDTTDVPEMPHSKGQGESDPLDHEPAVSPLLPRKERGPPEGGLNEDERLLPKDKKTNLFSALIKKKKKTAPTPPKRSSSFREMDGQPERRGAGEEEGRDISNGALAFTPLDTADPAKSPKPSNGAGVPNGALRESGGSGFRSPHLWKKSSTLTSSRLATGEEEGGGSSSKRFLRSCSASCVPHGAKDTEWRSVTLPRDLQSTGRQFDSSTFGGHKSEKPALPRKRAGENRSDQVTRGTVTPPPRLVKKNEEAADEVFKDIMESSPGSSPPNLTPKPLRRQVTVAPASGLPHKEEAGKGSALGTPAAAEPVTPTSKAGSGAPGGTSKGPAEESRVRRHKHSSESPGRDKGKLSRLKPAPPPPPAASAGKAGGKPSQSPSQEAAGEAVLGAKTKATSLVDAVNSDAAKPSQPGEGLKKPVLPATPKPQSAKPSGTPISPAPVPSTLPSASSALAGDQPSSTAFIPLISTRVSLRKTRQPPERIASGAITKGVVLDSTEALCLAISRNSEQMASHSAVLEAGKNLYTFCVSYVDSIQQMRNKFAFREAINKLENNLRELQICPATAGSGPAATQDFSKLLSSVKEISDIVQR

dengue virus type 1 = test: Antiviral activity against DENV 1 infected in hamster BHK-21 cells assessed as focus formation measured after 5 days; format: functional, organism-based; settings: BHK-21, 120 h
dengue virus type 2 = test: Antiviral activity against DENV 2 infected in african green monkey Vero cells assessed as focus formation measured after 6 days; format: functional, organism-based; settings: 144 h
dengue virus type 3 = test: Antiviral activity against DENV 3 infected in african green monkey Vero cells assessed as focus formation measured after 6 days; format: functional, organism-based; settings: 144 h
dengue virus type 4 = test: Antiviral activity against DENV 4 infected in african green monkey Vero cells assessed as focus formation measured after 6 days; format: functional, organism-based; settings: 144 h
[7] = molecular target: 1-phosphatidylinositol 3-phosphate 5-kinase (Homo sapiens, UniProt Q9Y2I7); test: Inhibition of PIKFYVE (unknown origin)
Sequence of 1-phosphatidylinositol 3-phosphate 5-kinase (Q9Y2I7 whole entry): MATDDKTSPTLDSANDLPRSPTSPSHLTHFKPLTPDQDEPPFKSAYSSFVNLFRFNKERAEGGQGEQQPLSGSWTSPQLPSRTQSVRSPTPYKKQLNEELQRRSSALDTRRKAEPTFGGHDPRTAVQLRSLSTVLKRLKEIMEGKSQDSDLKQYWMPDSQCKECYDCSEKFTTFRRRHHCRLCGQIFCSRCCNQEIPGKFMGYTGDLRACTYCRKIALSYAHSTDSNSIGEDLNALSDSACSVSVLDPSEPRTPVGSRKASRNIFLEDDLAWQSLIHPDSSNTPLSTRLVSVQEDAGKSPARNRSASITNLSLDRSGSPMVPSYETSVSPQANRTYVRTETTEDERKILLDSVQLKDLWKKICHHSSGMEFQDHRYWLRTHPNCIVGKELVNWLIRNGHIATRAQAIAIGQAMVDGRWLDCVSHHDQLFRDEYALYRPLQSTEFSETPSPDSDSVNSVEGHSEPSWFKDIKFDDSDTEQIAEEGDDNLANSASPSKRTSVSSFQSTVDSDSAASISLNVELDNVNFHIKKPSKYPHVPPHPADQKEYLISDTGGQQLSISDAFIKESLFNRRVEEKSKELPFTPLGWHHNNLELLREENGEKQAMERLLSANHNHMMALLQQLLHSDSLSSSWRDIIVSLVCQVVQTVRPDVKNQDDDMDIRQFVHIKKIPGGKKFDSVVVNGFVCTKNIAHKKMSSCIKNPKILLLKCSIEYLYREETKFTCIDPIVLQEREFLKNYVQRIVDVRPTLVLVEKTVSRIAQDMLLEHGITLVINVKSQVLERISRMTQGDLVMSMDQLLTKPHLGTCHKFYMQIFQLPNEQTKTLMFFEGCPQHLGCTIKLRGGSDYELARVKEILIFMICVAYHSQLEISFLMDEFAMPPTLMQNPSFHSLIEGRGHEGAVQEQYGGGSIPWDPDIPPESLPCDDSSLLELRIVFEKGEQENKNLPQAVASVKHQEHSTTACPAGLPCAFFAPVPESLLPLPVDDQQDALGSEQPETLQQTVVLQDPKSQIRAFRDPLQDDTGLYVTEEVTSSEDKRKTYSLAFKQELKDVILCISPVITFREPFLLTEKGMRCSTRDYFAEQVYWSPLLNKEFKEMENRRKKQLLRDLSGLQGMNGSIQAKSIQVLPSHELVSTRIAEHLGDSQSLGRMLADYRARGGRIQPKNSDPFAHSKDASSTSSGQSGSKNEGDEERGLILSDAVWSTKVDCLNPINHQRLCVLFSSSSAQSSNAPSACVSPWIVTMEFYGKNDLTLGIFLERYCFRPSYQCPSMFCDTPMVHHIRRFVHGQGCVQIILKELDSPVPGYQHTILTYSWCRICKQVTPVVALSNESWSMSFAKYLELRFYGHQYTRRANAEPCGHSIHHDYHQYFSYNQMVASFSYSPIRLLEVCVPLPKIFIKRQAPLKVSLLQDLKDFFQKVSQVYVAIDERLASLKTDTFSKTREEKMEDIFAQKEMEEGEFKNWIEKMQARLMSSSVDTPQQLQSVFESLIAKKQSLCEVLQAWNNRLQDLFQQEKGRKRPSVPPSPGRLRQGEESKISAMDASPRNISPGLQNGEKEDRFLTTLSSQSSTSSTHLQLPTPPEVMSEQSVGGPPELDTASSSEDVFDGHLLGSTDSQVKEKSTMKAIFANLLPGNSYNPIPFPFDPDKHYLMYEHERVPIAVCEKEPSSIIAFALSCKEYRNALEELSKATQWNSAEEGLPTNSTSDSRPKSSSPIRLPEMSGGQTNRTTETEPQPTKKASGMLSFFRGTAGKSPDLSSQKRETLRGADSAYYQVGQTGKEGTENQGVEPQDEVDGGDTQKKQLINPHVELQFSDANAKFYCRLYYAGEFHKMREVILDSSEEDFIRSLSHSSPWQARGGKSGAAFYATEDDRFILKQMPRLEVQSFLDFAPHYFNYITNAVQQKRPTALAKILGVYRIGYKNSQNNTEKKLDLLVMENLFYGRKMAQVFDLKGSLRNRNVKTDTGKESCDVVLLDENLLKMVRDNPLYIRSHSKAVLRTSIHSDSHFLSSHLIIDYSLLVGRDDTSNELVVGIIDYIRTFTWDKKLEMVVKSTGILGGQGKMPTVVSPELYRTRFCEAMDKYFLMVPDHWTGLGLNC

[8] = molecular target: Cyclin-G-associated kinase (Homo sapiens, UniProt O14976); test: Binding affinity to GAK (unknown origin) assessed as dissociation constant
[9] = molecular target: Dual specificity mitogen-activated protein kinase kinase 1 (Homo sapiens, UniProt Q02750)
[10] = Inhibition of MEK (unknown origin); parameters: species or system Homo sapiens
[11] = Cytotoxicity against african green monkey Vero cells; format: toxicity, cell-based; settings: chlorocebus sabaeus
SARS-CoV-2 = test: Antiviral activity against SARS-CoV-2 infected in african green monkey Vero cells incubated for 72 hrs by celltitre-glo luminescent assay; format: functional, organism-based; settings: Severe acute respiratory syndrome coronavirus 2, Vero
[12] = molecular target: BMP-2-inducible protein kinase (Homo sapiens, UniProt Q9NSY1); test: Binding affinity to BIKE (unknown origin) assessed as dissociation constant
SARS-CoV = test: microbe, parasite or virus in culture; settings: Severe acute respiratory syndrome-related coronavirus, Vero C1008, 50 h
Zika virus = test: Antiviral activity against ZIKV infected in human SNB-19 cells; format: functional, organism-based
[13] = molecular target: Cyclin-dependent kinase 2 (Homo sapiens, UniProt P24941); test: Inhibition of CDK2 (unknown origin)
[14] = Cytotoxicity against human […] cells; format: toxicity, cell-based; settings: U2OS cells
Human alphaherpesvirus 1 = test: Antiviral activity against HSV-1 infected in African green monkey Vero cells assessed as inhibition of viral replication; format: functional, organism-based; settings: Human alphaherpesvirus 1, Vero
Influenza A virus [15] = test: Antiviral activity against Influenza A virus A/Equine/2/MIAMI/1/63 (H3N8)); format: functional, organism-based
Influenza B virus [16] = test: Antiviral activity against Influenza B virus B/Lee/40; format: functional, organism-based
Influenza A virus [17] = test: Antiviral activity against Influenza A virus (A/PR/8/34 (H1N1)); format: functional, organism-based
Parainfluenza virus 5 = test: Antiviral activity against PIV5; format: functional, organism-based
Influenza B virus [18] = test: Antiviral activity against Influenza B virus B/MD/59; format: functional, organism-based
Influenza A virus [19] = test: Antiviral activity against Influenza A virus (A/WSN/33 (H1N1)); format: functional, organism-based
Influenza A virus [20] = test: Antiviral activity against Influenza A virus (A/Udorn/72 (H3N2)); format: functional, organism-based
[21] = molecular target: High affinity nerve growth factor receptor (Homo sapiens, UniProt P04629); test: Inhibition of TrKA (unknown origin)
Sequence of High affinity nerve growth factor receptor (P04629 whole entry, the tested form may be a part): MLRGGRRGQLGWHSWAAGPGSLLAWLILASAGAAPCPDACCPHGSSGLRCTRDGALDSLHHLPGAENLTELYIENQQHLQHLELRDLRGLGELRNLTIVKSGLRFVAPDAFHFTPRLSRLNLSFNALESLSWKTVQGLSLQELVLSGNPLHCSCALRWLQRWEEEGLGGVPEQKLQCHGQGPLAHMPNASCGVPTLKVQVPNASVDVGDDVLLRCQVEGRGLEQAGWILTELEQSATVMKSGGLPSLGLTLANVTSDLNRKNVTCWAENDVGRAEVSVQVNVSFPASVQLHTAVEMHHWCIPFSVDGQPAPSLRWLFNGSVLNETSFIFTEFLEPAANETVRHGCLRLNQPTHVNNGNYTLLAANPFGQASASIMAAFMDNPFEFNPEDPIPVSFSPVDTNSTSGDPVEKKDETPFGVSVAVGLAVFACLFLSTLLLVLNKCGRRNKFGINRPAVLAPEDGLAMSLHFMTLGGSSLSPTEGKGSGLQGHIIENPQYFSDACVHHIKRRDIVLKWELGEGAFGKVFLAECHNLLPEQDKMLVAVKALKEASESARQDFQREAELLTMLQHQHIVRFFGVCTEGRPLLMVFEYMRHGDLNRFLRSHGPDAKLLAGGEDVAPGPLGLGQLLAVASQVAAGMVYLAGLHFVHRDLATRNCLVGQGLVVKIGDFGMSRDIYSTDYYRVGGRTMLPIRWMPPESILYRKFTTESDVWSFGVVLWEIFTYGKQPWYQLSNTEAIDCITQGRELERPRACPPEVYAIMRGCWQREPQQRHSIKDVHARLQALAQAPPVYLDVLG

[22] = tested on: Human immunodeficiency virus 1; test: Antiviral activity against HIV-1 in U87/CD4/CCR5 cells expressing HIV-1-envelope-protein assessed as decreased cell-cell fusion at 300 nM; format: functional; parameters: scale not given: the % may be the effect or the level left

Sequence of AP2-associated protein kinase 1 (Q2M2I8 whole entry): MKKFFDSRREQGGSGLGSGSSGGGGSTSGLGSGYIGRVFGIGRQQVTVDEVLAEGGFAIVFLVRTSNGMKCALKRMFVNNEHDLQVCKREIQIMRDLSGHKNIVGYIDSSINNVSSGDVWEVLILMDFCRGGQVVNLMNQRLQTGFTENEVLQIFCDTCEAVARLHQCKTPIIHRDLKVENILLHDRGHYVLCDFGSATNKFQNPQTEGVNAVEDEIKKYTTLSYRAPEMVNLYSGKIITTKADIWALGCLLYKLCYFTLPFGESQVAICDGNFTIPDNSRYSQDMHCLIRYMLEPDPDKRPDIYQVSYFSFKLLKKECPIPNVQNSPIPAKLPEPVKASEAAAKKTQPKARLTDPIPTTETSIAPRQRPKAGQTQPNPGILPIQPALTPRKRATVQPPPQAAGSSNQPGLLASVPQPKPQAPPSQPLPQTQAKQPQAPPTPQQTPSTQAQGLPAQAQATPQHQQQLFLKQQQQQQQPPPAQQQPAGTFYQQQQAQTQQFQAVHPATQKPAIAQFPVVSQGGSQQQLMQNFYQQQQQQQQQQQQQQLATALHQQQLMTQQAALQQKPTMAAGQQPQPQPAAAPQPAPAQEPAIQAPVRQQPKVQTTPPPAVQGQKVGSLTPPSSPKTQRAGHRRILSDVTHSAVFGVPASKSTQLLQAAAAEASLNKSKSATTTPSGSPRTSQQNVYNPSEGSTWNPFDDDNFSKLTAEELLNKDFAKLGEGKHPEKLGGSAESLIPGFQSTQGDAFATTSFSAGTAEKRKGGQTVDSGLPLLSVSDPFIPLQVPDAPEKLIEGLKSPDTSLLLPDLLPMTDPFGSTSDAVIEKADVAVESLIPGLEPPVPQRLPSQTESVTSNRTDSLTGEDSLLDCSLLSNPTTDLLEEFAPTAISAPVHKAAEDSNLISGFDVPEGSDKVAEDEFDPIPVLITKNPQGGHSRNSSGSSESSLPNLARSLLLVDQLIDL

CC(C)(C)c1cc(C=C(C#N)C#N)cc(C(C)(C)C)c1O [TYRPHOSTIN A9]
IC50 [1]: 0.5 µM

CC(C)C(=O)Nc1n[nH]c2cc(-c3cccc(NS(=O)(=O)C4CC4)c3)ccc12
Kd [2]: 18 µM

Cn1cnc2c(F)c(Nc3ccc(Br)cc3Cl)c(C(=O)NOCCO)cc21 [SELUMETINIB]
Activity [3]: >95%

CNC(=O)c1cc(Oc2ccc(NC(=O)Nc3ccc(Cl)c(C(F)(F)F)c3)cc2)ccn1 [SORAFENIB]
IC50 [1]: 0.02 µM

c1cc(-c2cnn3cc(-c4ccc(OCCN5CCCCC5)cc4)cnc23)ccn1 [DORSOMORPHIN]
IC50 [4]: 0.109 µM

CN1CCN(CCOc2cc(OC3CCOCC3)c3c(Nc4c(Cl)ccc5c4OCO5)ncnc3c2)CC1 [SARACATINIB]
EC50 [5]: 2.9 µM

CC(=O)c1cccc(-c2cc(Nc3ccc(OC(F)(F)F)cc3)ncn2)c1
IC50 [6]: 0.138 µM | IC50 (dengue virus type 1): 5 µM | IC50 (dengue virus type 2): 5 µM | IC50 (dengue virus type 3): 5 µM | IC50 (dengue virus type 4): 5 µM

Ic1cccc(/C=N/Nc2nc(N3CCOCC3)nc(N(c3ccccc3)c3ccccc3)n2)c1
IC50 [7]: 0.009 µM

COc1cc(N(C)c2ccnc3ccc(C(F)(F)F)cc23)cc(OC)c1OC
Kd [8]: 2.5 µM

O=C(O)c1ccc(F)c(F)c1Nc1ccc(I)cc1Cl [ZAPNOMETINIB]
IC50 [9]: 0.00573 µM | IC50 [10]: 0.00573 µM

CCN1CCN(Cc2ccc(Nc3ncc(F)c(-c4cc(F)c5nc(C)n(C(C)C)c5c4)n3)nc2)CC1 [ABEMACICLIB]
CC50 [11]: > 50 µM | IC50 (SARS-CoV-2): 6600 µM

COc1cc(O)c2c(c1)/C=C/C[C@H](O)[C@H](O)C(=O)/C=C\C[C@H](C)OC2=O
Kd [12]: 0.0038 µM

Cc1ccc(NC(=O)c2ccc(CN3CCN(C)CC3)cc2)cc1Nc1nccc(-c2cccnc2)n1 [IMATINIB]
EC50 (SARS-CoV): 2.1 µM

CC(=O)Nc1ccc(C(C)C(=O)Nc2ncc(C(C)C)s2)cc1 (configuration not stated)
IC50 (Zika virus): 1.72 µM | IC50 [13]: 0.031 µM

COc1ccccc1-c1cnc2ccc(N3CC[C@H](N(C)C(=O)C(C)C)C3)nn12
Kd [2]: 0.001 µM

C1=Nc2ccccc2/C1=C/NNc1nc(Nc2ccccc2)nc(N2CCOCC2)n1
IC50 [14]: 0.014 µM

COc1ccc(-c2cnc3[nH]cc(C#Cc4cccnc4)c3c2)cc1OC
Kd [2]: 0.004 µM

Fc1ccc(N2CCCCC2)c(NC(=S)c2ccncc2)c1
EC50 (Human alphaherpesvirus 1): 0.69 µM

CC(=O)Nc1cccc(-n2c(=O)n(C3CC3)c(=O)c3c(Nc4ccc(I)cc4F)n(C)c(=O)c(C)c32)c1 [TRAMETINIB]
Activity [3]: >95%

COc1ccc(Cc2nccc3cc(OC)c(OC)cc23)cc1OC [PAPAVERINE]
IC50 (Influenza A virus [15]): 2 µM | IC50 (Influenza B virus [16]): 2 µM | IC50 (Influenza A virus [17]): 2 µM | IC50 (Parainfluenza virus 5): 2 µM | IC50 (Influenza B virus [18]): 2 µM | IC50 (Influenza A virus [19]): 2 µM | IC50 (Influenza A virus [20]): 2 µM

CC(C)(C)c1cc(/C=C(\C#N)C(N)=S)cc(C(C)(C)C)c1O [TYRPHOSTIN AG 879]
IC50 [21]: 10 µM

Cc1nc(Nc2ncc(C(=O)Nc3c(C)cccc3Cl)s2)cc(N2CCN(CCO)CC2)n1.O [DASATINIB]
Activity [22]: 93%

COc1ccccc1-c1cnc2ccc(N3CC[C@H](N(C)C(=O)C(C)(C)C)C3)nn12
Kd [2]: 0.001 µM

Cc1cn(-c2cc(NC(=O)c3ccc(C)c(Nc4nccc(-c5cccnc5)n4)c3)cc(C(F)(F)F)c2)cn1 [NILOTINIB]
EC50 (SARS-CoV): 2.1 µM
